According to patent US20140113958A1, “HCV Combination Therapy” (priority 2011, published 2014):

Test system: drug-resistant HCV genotype 1b replicons (NS3, NS5A, NS5B)
Procedure: The in vitro antiviral of miravirsen was evaluated against wild-type HCV genotype 1b replicon and HCV genotype 1b replicons constructed to contain key amino acid substitutions in NS3 protease (A156T, R155K), NS5B polymerase (S282T, M423I) and NS5A protein (Y93H) in transient transfection assays utilizing Huh 7 cells. […] Huh 7 cells were transfected with either the wild-type or the mutant RNA constructs by electroporation. Luciferase activity was measured 72 hours after compound treatment and EC50 values determined from dose-response curves. Fold resistance was expressed as the ratio of the EC50 for mutant HCV replicon to the EC50 for wild-type HCV replicon.
The in vitro antiviral of miravirsen was evaluated against wild-type HCV genotype 1b replicon and HCV replicons constructed to contain key amino acid substitutions in NS3 protease (A156T, R155K), NS5B polymerase (S282T, M423I) and NS5A protein (Y93H) in transient transfection assays. […] Huh 7 cells were transfected with either the wild type or the mutant RNA constructs by electroporation. Luciferase activity was measured 72 hours after compound treatment and EC50 values determined from dose-response curves. Fold resistance was expressed as the ratio of the EC50 for mutant HCV replicon to the EC50 for wild-type HCV replicon. Results are expressed as the mean of two individual experiments. […]

5′-^mCs^ocsAs^otstsGs^oTs^ocsas^mCs^oas^mCs^ots^mCs^omC^o-3′ (CCATTGTCACACTCC; all phosphorothioate, sugars by position and methylation of C not given here; further chemistry not fully specified) [miravirsen]
fold changes in resistance (all drug-resistant HCV variants tested): less than 2 fold | antiviral activity against drug-resistant replicons (replicons resistant to NS3, NS5A and NS5B inhibitors): broad antiviral activity
